Measurements from patent US5670154A, “Reducing tyrosinase activity” (priority 1994, dated 1997).

Test system: tyrosinase
Test: Tyrosinase inhibition, absorbance of Dopa-Chroma at 475 nm
Format: biochemical, mushroom
Settings: for Inhibition (%): Inhibitory agent 0.15mg/ml, tyrosine substrate, 30 minutes at 37° C.; for Relative strength of tyrosinase inhibition among the catechins: comparison of the catechins of Table 1
Method: The level of tyrosinase, inhibition was measured according to the following method.
50 μl of the enzyme (8300 U/ml) (Source:mushroom, SIGMA) was added to a mixture of 250 μl of tyrosine substrate solution (0.3 mg/ml), 250 μl of the inhibiting (polyphenol) solution (0.5 mg/ml), 250 μl of Macllvain buffer solution and left for 30 minutes at 37° C. After this time the absorbance of the red colored Dopa-Chroma formed was measured at 475 nm.
Inhibition(%)=[(A-B)-(C-D)]/(A-B)×100
Where A, B, C, D represent the absorbance of solutions A, B, C and D as defined below, measured at 475 nm respectively.
A is the tyrosine+enzyme solution
B is the tyrosine solution
C is the tyrosine+enzyme+polyphenol solution
D is the tyrosine+polyphenol solution

Oc1cc(O)c2c(c1)O[C@H](c1ccc(O)c(O)c1)[C@H](O)C2 [Epicatechin, (-)Epicatechin]
Inhibition (%): 11.9%

Oc1cc(O)c2c(c1)O[C@H](c1cc(O)c(O)c(O)c1)[C@H](O)C2 [Epigallocatechin, (-)Epigallocatechin]
Inhibition (%): 17.5%

O=C(O[C@@H]1Cc2c(O)cc(O)cc2O[C@@H]1c1cc(O)c(O)c(O)c1)c1cc(O)c(O)c(O)c1 [Epigallocatechin gallate, (-)Epigallocatechin gallate]
Inhibition (%): 79.5% | Relative strength of tyrosinase inhibition among the catechins: strongest inhibitors of tyrosinase

O=C(O[C@@H]1Cc2c(O)cc(O)cc2O[C@@H]1c1ccc(O)c(O)c1)c1cc(O)c(O)c(O)c1 [Epicatechin gallate, (-)Epicatechin gallate]
Inhibition (%): 95.1% | Relative strength of tyrosinase inhibition among the catechins: strongest inhibitors of tyrosinase
